From patent publication US20170001990A1 (Genentech, Inc., priority 2014, published 2017)

Each compound was assayed against Human recombinant carboxy-terminal his-tagged LDHA (amino acids 2-332) (Homo sapiens, UniProt P00338) (assay: LDHA enzyme inhibition assay (NADH fluorescence)). Settings: LDHA IC50 (μM), 1 nM LDHA, NADH and pyruvate, stereochemistry of tested sample given.
Protocol: Test compounds were diluted in 100% DMSO with 1:3 serial dilutions. […] For the enzyme reaction, serially diluted compounds were added to a mixture of enzyme and NADH. […] Following the baseline read, pyruvate was added to the assay plates and the plates were read with excitation 340 nm and emission 480 nm for 10 minutes every 2.5 seconds. A suitable linear timeframe was selected (150-400 s) to calculate the slope of each concentration tested. The raw data were fitted to 4-parameter dose-response curves using the following equation:
fit=(A+((B−A)/(1+((C/x)̂D))))
inv=(C/((((B−A)/(y−A))−)̂(1/D)))
res=(y−fit) • where A=minimum y, B=maximum y, C=50% y max, and D=slope factor.
The curve bottom was set to the background rate (initial 5 second recording prior to addition of pyruvate) and curve top was set to no inhibitor (DMSO only) control wells rate.
The compounds of the present invention were tested for their capacity to inhibit LDHA activity and activation as described in the enzyme inhibition assay described above.
Compound O=C1C[C@@](c2ccsc2)(c2ccc(N3CCOCC3)c(F)c2)NC(=O)C1Sc1ccccc1Cl (mixture of isomers) [Example 316, (6S)-3-(2-chlorophenyl) sulfanyl-6-(3-fluoro-4-morpholine-phenyl)-6-(3-thienyl)piperidine-2,4-dione] has an IC50 of 0.044 µM. O=C1C[C@](c2ccsc2)(c2cccc(Oc3ccc(F)nc3Cl)n2)NC(=O)C1Sc1ccccc1Cl (mixture of isomers) [Example 325, (6S)-6-[6-[(2-chloro-6-fluoro-3-pyridyl)oxy]-2-pyridyl]-3-(2-chlorophenyl) sulfanyl-6-(3-thienyl) piperidine-2,4-dione] was tested, and the IC50 was 0.162 µM. In the case of C[C@@H](Nc1cccc(C2(c3ccsc3)CC(=O)C(Sc3ccccc3Cl)C(=O)N2)n1)c1ccc(F)cc1 (mixture of isomers) [Example 302, 3-((2-chlorophenyl)thio)-6-(6-((1-(4-fluorophenyl)ethyl)amino)pyridin-2-yl)-6-(thiophen-3-yl) piperidine-2,4-dione], the IC50 is reported as 0.03 µM. O=C1CC(c2ccsc2)(c2cccc(Oc3cccc(F)c3)n2)NC(=O)C1Sc1ccccc1Cl (single isomer, unassigned) [Example 47, 3-(2-chlorophenyl) sulfanyl-6-[6-(3-fluorophenoxy)-2-pyridyl]-6-(3-thienyl)piperidine-2,4-dione] gave an IC50 of 0.12 µM. Compound O=C1CC(c2ccsc2)(c2cccc(Oc3ccc(F)c(F)c3)n2)NC(=O)C1Sc1ccccc1Cl (single isomer, unassigned) [Example 57, 3-(2-chlorophenyl)sulfanyl-6-[6-(3,4-difluoro-phenoxy)-2-pyridyl]-6-(3-thienyl)piperidine-2,4-dione] has an IC50 of 0.086 µM. With O=C1CC(c2ccsc2)(c2cccc(Oc3cncc(F)c3)n2)NC(=O)C1Sc1ccccc1Cl (single isomer, unassigned) [Example 65, 3-(2-chlorophenyl)sulfanyl-6-[6-[(5-fluoro-3-pyridyl)oxy]-2-pyridyl]-6-(3-thienyl)piperidine-2,4-dione] the IC50 was 0.056 µM. Compound O=C1CC(c2ccsc2)(c2cccc(Oc3ccc(F)c(F)c3)n2)NC(=O)C1Sc1ccccc1Cl (single isomer, unassigned) [Example 77, 3-(2-chlorophenyl)sulfanyl-6-[6-(3,4-difluoro-phenoxy)-2-pyridyl]-6-(3-thienyl)piperidine-2,4-dione] has an IC50 of 0.031 µM. O=C1CC(c2ccsc2)(c2cccc(Oc3ccc(F)c(F)c3)n2)NC(=O)C1Sc1ccccc1Cl (single isomer, unassigned) [Example 78, 3-(2-chlorophenyl)sulfanyl-6-[6-(3,4-difluoro-phenoxy)-2-pyridyl]-6-(3-thienyl)piperidine-2,4-dione] showed an IC50 of 0.023 µM. O=C1CC(c2ccsc2)(c2cccc(Oc3cccc(F)c3)n2)NC(=O)C1Sc1ccccc1Cl (single isomer, unassigned) [Example 79, 3-(2-chlorophenyl)sulfanyl-6-[6-(3-fluorophenoxy)-2-pyridyl]-6-(3-thienyl) piperidine-2,4-dione] showed an IC50 of 0.199 µM. For O=C1CC(c2ccsc2)(c2cccc(OCC(F)(F)F)n2)NC(=O)C1Sc1ccccc1Cl (single isomer, unassigned) [Example 82, 3-(2-chlorophenyl)sulfanyl-6-(3-thienyl)-6-[6-(2,2,2-trifluoroethoxy)-2-pyridyl]piperidine-2,4-dione], the IC50 was 0.049 µM. O=C1CC(c2ccsc2)(c2cccc(Oc3ccc(F)c(Cl)c3)n2)NC(=O)C1Sc1ccccc1Cl (single isomer, unassigned) [Example 83, 6-(6-(3-chloro-4-fluoro-phenoxy)pyridin-2-yl)-3-((2-chlorophenyl)thio)-6-(thiophen-3-yl) piperidine-2,4-dione] was tested, and the IC50 was 0.013 µM. With O=C1CC(c2ccsc2)(c2cccc(OCC3CC3)n2)NC(=O)C1Sc1ccccc1Cl (single isomer, unassigned) [Example 84, 3-(2-chlorophenyl)sulfanyl-6-[6-(cyclopropyl-methoxy)-2-pyridyl]-6-(3-thienyl)piperidine-2,4-dione] the IC50 was 0.008 µM. O=C1CC(c2ccsc2)(c2cccc(OCC(F)(F)F)n2)NC(=O)C1Sc1ccccc1Cl (single isomer, unassigned) [Example 86, 3-(2-chlorophenyl)sulfanyl-6-(3-thienyl)-6-[6-(2,2,2-trifluoroethoxy)-2-pyridyl]piperidine-2,4-dione] gave an IC50 of 0.022 µM. In the case of O=C1CC(c2ccsc2)(c2cccc(OCC(F)(F)F)n2)NC(=O)C1Sc1ccccc1Cl (single isomer, unassigned) [Example 87, 3-(2-chlorophenyl)sulfanyl-6-(3-thienyl)-6-[6-(2,2,2-trifluoroethoxy)-2-pyridyl]piperidine-2,4-dione], the IC50 is reported as 0.01 µM. Work on O=C1CC(c2ccsc2)(c2cccc(Oc3cccc4ncccc34)n2)NC(=O)C1Sc1ccccc1Cl (single isomer, unassigned) [Example 91, 5-((2-chlorophenyl)thio)-4-hydroxy-6′-(quinolin-5-yloxy)-2-(thiophen-3-yl)-2,3-dihydro-[2,2′-bipyridin]-6(1H)-one] yielded an IC50 of 0.011 µM. Work on O=C1CC(c2ccsc2)(c2cccc(OCC3CC3)n2)NC(=O)C1Sc1ccccc1Cl (single isomer, unassigned) [Example 93, 3-(2-chlorophenyl)sulfanyl-6-[6-(cyclopropyl-methoxy)-2-pyridyl]-6-(3-thienyl)piperidine-2,4-dione] yielded an IC50 of 0.319 µM. O=C1CC(c2ccsc2)(c2cccc(OCC3CC3)n2)NC(=O)C1Sc1ccccc1Cl (single isomer, unassigned) [Example 97, 3-(2-chlorophenyl)sulfanyl-6-[6-(cyclopropyl-methoxy)-2-pyridyl]-6-(3-thienyl)piperidine-2,4-dione] showed an IC50 of 0.03 µM. O=C1CC(c2ccsc2)(c2cccc(OC3CCC(O)C3)n2)NC(=O)C1Sc1ccccc1Cl (single isomer, unassigned) [Example 104, 3-((2-chlorophenyl)thio)-6-(6-((3-hydroxycyclo-pentyl)oxy)pyridin-2-yl)-6-(thiophen-3-yl) piperidine-2,4-dione] gave an IC50 of 0.118 µM. For O=C1CC(c2ccsc2)(c2cccc(OC3CCC(O)C3)n2)NC(=O)C1Sc1ccccc1Cl (single isomer, unassigned) [Example 106, 3-((2-chlorophenyl)thio)-6-(6-((3-hydroxy-cyclopentyl)oxy)pyridin-2-yl)-6-(thiophen-3-yl)piperidin-2,4-dione], the IC50 was 0.732 µM. For O=C1CC(c2ccsc2)(c2cccc(Oc3ccc(F)c(Cl)c3)n2)NC(=O)C1Sc1ccccc1Cl (single isomer, unassigned) [Example 108, 6-(6-(3-chloro-4-fluoro-phenoxy)pyridin-2-yl)-3-((2-chlorophenyl)thio)-6-(thiophen-3-yl) piperidine-2,4-dione], the IC50 was 0.108 µM. O=C1CC(c2ccsc2)(c2cccc(NCCC3CC3)n2)NC(=O)C1Sc1ccccc1Cl (single isomer, unassigned) [Example 110, 3-(2-chlorophenyl)sulfanyl-6-[6-(2-cyclopropylethyl-amino)-2-pyridyl]-6-(3-thienyl)piperidine-2,4-dione] gave an IC50 of 0.018 µM. For O=C1CC(c2ccsc2)(c2cccc(Oc3ccc(F)c(Cl)c3)n2)NC(=O)C1Sc1ccccc1Cl (single isomer, unassigned) [Example 112, 6-(6-(3-chloro-4-fluoro-phenoxy)pyridin-2-yl)-3-((2-chlorophenyl)thio)-6-(thiophen-3-yl) piperidine-2,4-dione], the IC50 was 0.01 µM.
